Tested on: 883617-216-R-J1-PDC complex spheroid viability
Experiment: Anticancer human tumor 883617-216-R-J1-PDC patient-derived bladder carcinoma cell line growth inhibition
Settings: for IC50: curve of first compound; for viability, T/C: stronger effect = lower value
In short: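 Complex spheroids of tumor cells with HUVEC and human MSCs, exposed to iadademstat combined with other agents. Each agent tested in half-log steps from near clinical Cmax (else 10 microM top), DMSO ≤0.25%.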
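Also: exposure lasted seven days after three days of spheroid growth.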
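For viability, T/C in this document: 100% = DMSO vehicle control luminescence.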

COc1cc(C2c3cc4c(cc3C(OC3OC5COC(C)OC5C(O)C3O)C3COC(=O)C23)OCO4)cc(OC)c1O (stereo not given) + NC1CCC(NC2CC2c2ccccc2)CC1
IC50 (second compound 0.1 µM): 377 nM | IC50 (second compound 0.316 µM): 645 nM | IC50 (second compound 1 µM): 830 nM | IC50 (second compound 3.16 µM): 587 nM | IC50 (second compound 10 µM): 1750 nM | viability, T/C (second compound 0.1 µM, first compound 0.00949 µM): 96.9% | viability, T/C (second compound 0.1 µM, first compound 0.03 µM): 94.1% | viability, T/C (second compound 0.1 µM, first compound 0.0949 µM): 72.5% | viability, T/C (second compound 0.1 µM, first compound 0.3 µM): 51.6% | viability, T/C (second compound 0.1 µM, first compound 0.949 µM): 45.8% | viability, T/C (second compound 0.1 µM, first compound 3 µM): 38.3% | viability, T/C (second compound 0.316 µM, first compound 0.00949 µM): 101% | viability, T/C (second compound 0.316 µM, first compound 0.03 µM): 94% | viability, T/C (second compound 0.316 µM, first compound 0.0949 µM): 80.1% | viability, T/C (second compound 0.316 µM, first compound 0.3 µM): 51.4% | viability, T/C (second compound 0.316 µM, first compound 0.949 µM): 54% | viability, T/C (second compound 0.316 µM, first compound 3 µM): 43.4% | viability, T/C (second compound 1 µM, first compound 0.00949 µM): 104% | viability, T/C (second compound 1 µM, first compound 0.03 µM): 83% | viability, T/C (second compound 1 µM, first compound 0.0949 µM): 67.3% | viability, T/C (second compound 1 µM, first compound 0.3 µM): 56.2% | viability, T/C (second compound 1 µM, first compound 0.949 µM): 49.2% | viability, T/C (second compound 1 µM, first compound 3 µM): 44.6% | viability, T/C (second compound 3.16 µM, first compound 0.00949 µM): 106% | viability, T/C (second compound 3.16 µM, first compound 0.03 µM): 95.5% | viability, T/C (second compound 3.16 µM, first compound 0.0949 µM): 70.9% | viability, T/C (second compound 3.16 µM, first compound 0.3 µM): 53.2% | viability, T/C (second compound 3.16 µM, first compound 0.949 µM): 51.8% | viability, T/C (second compound 3.16 µM, first compound 3 µM): 41.8% | viability, T/C (second compound 10 µM, first compound 0.00949 µM): 122% | viability, T/C (second compound 10 µM, first compound 0.03 µM): 99.8% | viability, T/C (second compound 10 µM, first compound 0.0949 µM): 75.4% | viability, T/C (second compound 10 µM, first compound 0.3 µM): 60.2% | viability, T/C (second compound 10 µM, first compound 0.949 µM): 56.4% | viability, T/C (second compound 10 µM, first compound 3 µM): 45.6%

— PubChem BioAssay AID1918945 (Molecular Pharmacology Branch, DTP, NCI, 2023)
